Assay: xn = mol fraction of the nth substance listed
Settings: 101 kPa

CCOC(C)=O + CCCCn1cc[n+](C)c1.Cl[Fe-](Cl)(Cl)Cl
x2 = 0
Settings | viscosity [mPa·s]
293.15 K | 0.46
298.15 K | 0.43
303.15 K | 0.41
308.15 K | 0.39
313.15 K | 0.37
318.15 K | 0.35
323.15 K | 0.33

CCCCn1cc[n+](C)c1.[Cl][Fe-]([Cl])([Cl])[Cl] + CCOC(C)=O
viscosity [mPa·s]
Settings | x1 = 0.1002 | x1 = 0.1999 | x1 = 0.3007 | x1 = 0.3999 | x1 = 0.5 | x1 = 0.6001 | x1 = 0.7 | x1 = 0.7973 | x1 = 0.9 | x1 = 1
293.15 K | 1.17 | 2.37 | 4.32 | 7.33 | 11.15 | – | 22.98 | 30.8 | 41.3 | 56.6
298.15 K | 1.09 | 2.19 | 3.92 | 6.53 | 9.78 | 14.09 | 19.72 | – | – | 46
303.15 K | 1.02 | 2.01 | 3.56 | 5.84 | 8.64 | – | 16.92 | – | 28.7 | 37.9
308.15 K | 0.97 | – | 3.26 | – | 7.69 | – | 14.65 | – | 24.4 | –
313.15 K | 0.91 | – | 2.99 | 4.76 | 6.88 | 9.63 | 12.81 | – | 21.04 | 27
318.15 K | 0.86 | 1.66 | – | – | 6.19 | 8.65 | 11.32 | 14.58 | – | 23.24
323.15 K | 0.82 | 1.57 | 2.56 | 3.98 | 5.63 | 7.79 | 10.08 | 12.88 | 16.08 | 20.16
